# In patent publication US20230190689A1, “METHODS AND COMPOSITIONS FOR INDUCING BROWN ADIPOGENESIS” (ENERGESIS PHARMACEUTICALS, INC., priority 2020, published 2023):
# B1: BMP7: recombinant human BMP7 (rhBMP7), R&D Systems, reference agent (positive control) (protein, UniProt P18075 293-431, looked up)
# Bone morphogenetic protein 7: STGSKQRSQNRSKTPKNQEALRMANVAENSSSDQRQACKKHELYVSFRDLGWQDWIIAPEGYAAYYCEGECAFPLNSYMNATNHAIVQTLVHFINPETVPKPCCAPTQLNAISVLYFDDSSNVILKKYRNMVVRACGCH
# What was measured:
# CD34+ cells [1] = assay: Light microscopy of CD34+ cells for brown adipocyte differentiation (multilocular lipid-containing cells); assay type: cell-based, human; settings: CD34+ cells 6 days following the end of compound treatment and switch into MDM media
# Experimental: (§1) Cells were seeded at 10,000 per cm^2 (48-well tissue culture, Chemglass #CLS-3500-048), cultured until confluency (1-4 days) at 37° C. in Endothelial cell growth medium-2 (EGM2) (BulletKit growth medium, Lonza #CC-3162) and until differentiation (6-12 more days). After 1-4 days in EGM2 media the cells were incubated with test agents (or positive controls) for 2-3 days (from day −3 or −2 to day 0). Rosiglitazone (1 μM) and rhBMP7 (6.3 nM) were used as reference agents (positive controls). Then (on day 0) the culture media (containing the test agents or positive controls) was removed, and minimal adipogenic medium (MDM) was added and the cells were left to differentiate of 6-12 days. The MDM media is a modification of the adipogenic media described by Rodriguez et al., and contains: DMEM/Ham's F-12 50/50 Mix (3.151 g/1, 17.5 mM D-glucose, 3.651 g/l L-glutamine) (Cellgro #10-090-CV), 5 μg/ml (0.86 μM) insulin, 1 μM dexamethasone, 100 μM 3-isobutyl-1-methylxanthine, 0.2 nM 3,3′,5-triiodo-L-thyronine, 10 μg/ml (127 nM) transferrin, and 1% penicillin-streptomycin. Adipocyte scores were determined by light microscopy and defined as the number of cells, on a per well basis, that contain multilocular lipid droplets, at the end of the differentiation of the cells, approximately 6 to 12 days following the end of compound treatment and switch into MDM media.
# Pictures of cells were taken using a hand-held digital camera (Nikon Coolpix 950) and inverted microscope (Nikon TMS) used for cell culture observations; images were optimized using Paint.net version 4.0 functions for Auto-Level Brightness and Contrast.
# DIO mice = assay: DIO mouse study of metabolic health, once-daily oral gavage for 28 to 56 days; assay type: in vivo, C57Bl/6 mice; settings: oral gavage once a day, bezafibrate 60 mg/kg, oxaprozin 50 mg/kg, vs vehicle
# Experimental: Obesity and insulin resistance, an early stage in the development of type 2 diabetes (or pre-diabetes), was induced in C57Bl/6 mice by feeding the mice with a high fat diet (Research diet, Cat #D12492, 60/a fat kcal) for 12 weeks starting at 6 weeks of age. The mice were maintained at 22-23° C. with abundant bedding material, maintaining the animals in an environmental temperature close to their thermoneutrality, starting 2 weeks prior to the dosing period and for the full dosing period with a 12 h/12 h light/dark cycle.
# Mice were dosed once per day by oral gavage (200 μl per mouse), first for 3 days with the vehicle (PBS+0.5% CMC+0.1% Tween-80) as acclimation for running into the study, then with either vehicle alone or testing material dissolved in the vehicle for […] (4 to 8 weeks).
# Body weight was recorded every 3 days, body composition (fat and lean mass with EchoMRI) was assessed at the end of the study (University of Cincinnati Mouse Metabolic Phenotyping Center), blood glucose level (measured with a glucometer) was monitored 3-5 days before (baseline) and at the end of the dosing period.
# At the end of the dosing period, animals were fasted for 6 hours and euthanized by CO2, blood was collected, and plasma was isolated and saved at −20° C. Plasma glucose, insulin and leptin levels were assessed 3-5 days before (baseline) and at the end of the dosing period (mice were fasted for 6 hours before all plasma collection) (University of Cincinnati Mouse Metabolic Phenotyping Center). Insulin sensitivity was determined using the homeostasis model assessment of insulin resistance (HOMA-IR). HOMA-IR=(plasma insulin [microIU/ml] x plasma glucose [mM])/22.5.
# The mice were maintained on a high fat diet (60% calories from fat) throughout the study. An overnight fast was performed the last night of the study in preparation for glucose tolerance testing.
# [2] = tested on: CD34+ brown adipocyte progenitor cells; assay: Multiplexed TaqMan real-time PCR of UCP1 and PPARγ2 mRNA (normalized to cyclophilin A) to quantify differentiation of CD34+ cells into brown adipocytes; assay type: cell-based, human; settings: for differentiation of brown adipocyte progenitor cells into brown adipocytes, as indicated by expression of UCP1 and PPARγ2: in vitro, first screen at 10 μM, actives retested at 1 nM to 50 μM
# From the text: A robust method, previously disclosed, was used for detection of CD34+ cell differentiation into brown adipocytes by simultaneously quantifying mRNA species corresponding to the brown adipocyte marker UCP1, the adipocyte marker PPARγ2, and the “housekeeping” gene cyclophilin A which was used as the internal control.
# This method permits analysis of a large number of samples to identify agents that enhance the differentiation of CD34+ cells into brown adipocytes. When differentiated into brown adipocytes, CD34+ cells express much higher levels of UCP1 and PPARγ2 mRNA for a given level of cyclophilin A. UCP1 and PPARγ2 mRNA levels normalized to cyclophilin A mRNA levels give an indication of the level of differentiation of the CD34+ cells into brown adipocytes, independent of the total number of cells in the sample.
# Quantification of UCP1, PPARγ2 and cyclophilin A mRNA by multiplexed TaqMan real-time PCR was thus used to quantify differentiation of the CD34+ cells into brown adipocytes.
# UCP1 is the key protein in brown adipocytes responsible for uncoupled respiration and is also highly specific for brown adipocyte differentiation. It is expressed exclusively by fully differentiated brown adipocytes and not by the CD34+ progenitor cells. We used a real-time semi-quantitative RT PCR-based assay for detection of UCP1 expression, in order to screen for brown adipocyte recruiters. […] The assay has the added advantage of allowing light microscopic visualization of the distinct morphological changes accompanying differentiation into brown adipocytes. This serves as further confirmation of differentiation.
# as §1
# Total RNA was prepared from cells using PureLink RNA Isolation Kit (Invitrogen #12183-016). Alternatively, cells were simply lyzed by freezing (−80° C.). First strand cDNA were synthesized using the High Capacity cDNA Reverse Transcription kit (Applied Biosystems, Foster City, Calif.) and random primers.
# Quantitative real-time PCR was performed using an Applied Biosystems StepOnePlus™ instrument, TaqMan Gene Expression Master Mix (Applied Biosystems #4369016), and custom TaqMan gene expression probes and primers for human uncoupling protein-1 “UCP1” (GenBank NM_021833) and for human peptidylprolyl isomerase A “cyclophilin A” (GenBank NM_021130).
# Cyclophilin A was used as a control to account for any variations due to the efficiency of reverse transcription. Arbitrary units were determined by normalizing target mRNA levels to cyclophilin A mRNA levels (based on Cts).
# CD34+ cells [3] = assay: Quantification of UCP1 protein by fluorescence immunohistochemistry (IHC); assay type: cell-based, human
# Experimental: Culturing and differentiation of CD34+ cells into brown adipocytes were performed using adipogenic differentiation medium lacking (Minimal Differentiation Medium, MDM) or containing 1 μM rosiglitazone (Reference Differentiation Medium, RDM). After 15 days of differentiation cells were fixed with 4% Paraformaldehyde PBS pH 7.4, and incubated with a UCP1 antibody (Abcam ab23841) and Alexafluor 488 goat anti-rabbit antibody to quantify relative UCP1 levels (green) according to standard protocols. Prior to fixation of cells, nuclei were labeled with 5 μM DAPI (blue) for 10 minutes. Each treatment condition was evaluated in triplicate in a 96-well plate corresponding to approximately 360-480 cells for each data point in total. The InCell 1000 Developer Toolbox software was used to develop an automated cell detection script to measure UCP1 signal intensity, using the nuclei and cytoplasm detection algorithms. As a readout, total intensity of UCP1 signal within the cell was used, normalized to cell number.
molecule,measurement,setting,value
"CC(C)(Oc1ccc(CCNC(=O)c2ccc(Cl)cc2)cc1)C(=O)O [bezafibrate, 2-(4-{2-[(4-chlorobenzoyl)amino]ethyl}phenoxy)−2-methylpropanoic acid]",brown adipocyte formation by light microscopy,CD34+ cells [1],promote brown adipocyte formation
same,body fat mass,DIO mice; MRI,significant decreases
same,body weight,DIO mice,significant decreases
same,glycemia,DIO mice,significant decreases
same,insulin resistance index (HOMA-IR),DIO mice,significant decreases
same,plasma insulin,DIO mice,significant decreases
same,plasma leptin,DIO mice,significant decreases
same,"differentiation of brown adipocyte progenitor cells into brown adipocytes, as indicated by expression of UCP1 and PPARγ2",[2],promote the differentiation of brown adipocyte progenitor cells into brown adipocytes
"CCCN(CCC)S(=O)(=O)c1ccc(C(=O)O)cc1 [probenecid, Probenecid]",agents identified by quantification of UCP1 protein by fluorescence IHC,CD34+ cells [3],identified using this technique
same,brown adipocyte formation by light microscopy,CD34+ cells [1],promote brown adipocyte formation
same,"differentiation of brown adipocyte progenitor cells into brown adipocytes, as indicated by expression of UCP1 and PPARγ2",[2],promote the differentiation of brown adipocyte progenitor cells into brown adipocytes
"O=C(O)c1cc(-c2ccc(F)cc2F)ccc1O [diflunisal, Diflunisal]",agents identified by quantification of UCP1 protein by fluorescence IHC,CD34+ cells [3],identified using this technique
same,brown adipocyte formation by light microscopy,CD34+ cells [1],promote brown adipocyte formation
same,"differentiation of brown adipocyte progenitor cells into brown adipocytes, as indicated by expression of UCP1 and PPARγ2",[2],promote the differentiation of brown adipocyte progenitor cells into brown adipocytes
"CC(C(=O)O)c1ccc2c(c1)CC(=O)c1ccccc1S2 (stereo not drawn) [zaltoprofen, 2-(6-Oxo-5H-benzo[b][1]benzothiepin-3-yl)propanoic acid]",brown adipocyte formation by light microscopy,CD34+ cells [1],promote brown adipocyte formation
same,"differentiation of brown adipocyte progenitor cells into brown adipocytes, as indicated by expression of UCP1 and PPARγ2",[2],promote the differentiation of brown adipocyte progenitor cells into brown adipocytes
"CCCCC[C@H](O)/C=C/[C@H]1[C@H](O)CC(=O)[C@@H]1CCCCCCC(=O)O [alprostadil, Alprostadil]",brown adipocyte formation by light microscopy,CD34+ cells [1],promote brown adipocyte formation
same,"differentiation of brown adipocyte progenitor cells into brown adipocytes, as indicated by expression of UCP1 and PPARγ2",[2],promote the differentiation of brown adipocyte progenitor cells into brown adipocytes
B1,brown adipocyte formation by light microscopy,CD34+ cells [1],promote brown adipocyte formation
same,recruitment of brown adipocytes,"[2]; CD34+ cells, rosiglitazone 1 μM, BMP7 6 nM (most effective individual concentrations), day −3 to d0",robustly increase the recruitment of brown adipocytes
same,response of the UCP1/PPARγ2 RT-PCR assay to positive controls,[2]; positive controls,appropriate dose-responsive behavior
